One series concerns HOP-92. The format is cell-based. Particulars: HOP-92, non-small-cell lung cancer, mutant p53, 48 h.
Series [1] can be described thus: Cytotoxicity (CellTiter 96 AQueous One, MTS). The format is cell-based, human. The settings on record: human; CCRF−CEM cells. As to the method: (§1) The cytotoxicity and human immunodeficiency virus type 1 (HIV-1) strain LAI replication assays were performed in freshly explanted primary human peripheral blood mononuclear cells (PBM cells) according to published procedures. The assays were conducted at least in triplicate and treated statistically (if possible). HIV-1LAI (= HIV-1BRU = LAV-1) was assayed in primary human peripheral blood lymphocyte (PBL) cells in the presence of a drug being evaluated. The parameter for antiviral activity was a reduction in reverse transcriptase (RT) activity in the cell supernatant after Triton X–100-mediated lysis of released virions, as measured using [5α-^3H]dTTP (5α-tritiated thymidine 5′-triphosphate) incorporation into poly(rA)•poly(dT) directed by the primed RNA template poly(rA)•oligo(dT). […] The detailed assay methodology was reported by Schinazi et al. as based on an older assay system of Spira et al.. The experiments were conducted in triplicate and treated statistically using regression curve analysis (r^2 coefficient of determination). The RT inhibitor AZT (zidovudine, 3′-azido-3′-deoxythymidine; RETROVIR™) served as a positive control. Cytotoxicity on PBL and the other cells (CCRF−CEM, Vero) exerted by the test compounds was determined as described by Stuyver et al. by application of the CellTiter 96® AQueous One Solution Cell Proliferation Assay (Promega Corp., Madison, WI, USA). Briefly, the phenazine ethosulfate (PES)-coupled reduction of the tetrazolium salt 3-(4,5-dimethylthiazol-2-yl)-5-(3-carboxymethoxyphenyl)-2-(4-sulfophenyl)-2H-tetrazolium (MTS) to a purple, water-soluble formazan by living, undamaged cells was measured.

For the next series, the system named is CCRF−CEM cells. Kind of series: Cytotoxicity (CellTiter 96 AQueous One, MTS). The series is classed as cell-based, human. The settings on record: Homo sapiens, 1.0 µM, read-out: CCRF–CEM growth inhibition at fixed 1.0 µM concentration. How it is done:
as §1

Series [2] can be described thus: Cytotoxicity (CellTiter 96 AQueous One, MTS). The format is cell-based, African green monkey (grivet) Chlorocebus aethiops. The settings on record: African green monkey (Chlorocebus aethiops), Vero cells. How it is done: The cytotoxicity and human immunodeficiency virus type 1 (HIV-1) strain LAI replication assays were performed in freshly explanted primary human peripheral blood mononuclear cells (PBM cells) according to published procedures. The assays were conducted at least in triplicate and treated statistically (if possible). HIV-1LAI (= HIV-1BRU = LAV-1) was assayed in primary human peripheral blood lymphocyte (PBL) cells in the presence of a drug being evaluated. The parameter for antiviral activity was a reduction in reverse transcriptase (RT) activity in the cell supernatant after Triton X–100-mediated lysis of released virions, as measured using [5α-^3H]dTTP (5α-tritiated thymidine 5′-triphosphate) incorporation into poly(rA)•poly(dT) directed by the primed RNA template poly(rA)•oligo(dT). […] Cytotoxicity on PBL and the other cells (CCRF−CEM, Vero) exerted by the test compounds was determined as described by Stuyver et al. by application of the CellTiter 96® AQueous One Solution Cell Proliferation Assay (Promega Corp., Madison, WI, USA). Briefly, the phenazine ethosulfate (PES)-coupled reduction of the tetrazolium salt 3-(4,5-dimethylthiazol-2-yl)-5-(3-carboxymethoxyphenyl)-2-(4-sulfophenyl)-2H-tetrazolium (MTS) to a purple, water-soluble formazan by living, undamaged cells was measured.

In series [3] the test system is p21^Waf1/p21^Cip1, cyclin D1, Bax. Kind of series: Expression of p53-regulated protein factors in cancer cells (data not shown). The format is cell-based. The settings on record: mCRPC cells, multiple myeloma U266 cells, plasmacytoma RPMI-8226 cells.
The test system of a further series is K-562. The settings on record: for GI50 / CC50: Homo sapiens, K562, 48 h; for CC50: read-out: LC50; for TGI: K-562, leukemia, mutant p53, 48 h.
The next series has as its system SR. The settings on record: for GI50 / CC50: Homo sapiens, 48 h; for CC50: read-out: LC50; for TGI: leukemia, wild-type p53, 48 h.
A further series has as its system U251. Particulars: for GI50 / CC50: Homo sapiens, U-251, 48 h; for CC50: read-out: LC50; for TGI: U251, CNS cancer (brain tumor), mutant p53, 48 h.
The subject of the next series is UACC-257. The settings on record: for GI50 / CC50: Homo sapiens, UACC-257, 48 h; for CC50: read-out: LC50; for TGI: UACC-257, melanoma, wild-type p53, 48 h.
The next series has as its system SK-OV-3. Particulars: for GI50 / CC50: Homo sapiens, SK-OV-3, 48 h; for CC50: read-out: LC50; for TGI: SK-OV-3, ovarian cancer, no p53 protein expressed, 48 h.
The subject of series [4] is 60 human cancer cell lines. The settings on record: for GI50 / CC50: Homo sapiens; for GI50: read-out: Mean of Inhibition Data (MID) GI50, 10^MID; for CC50: read-out: Mean of Inhibition Data (MID) LC50, 10^MID; for induction of cancer cell death (classification): NCI 60 panel overall; for Mean of Inhibition Data (MID) TGI, 10^MID: mean over all tested cell lines of the NCI 60 panel.
Source text: The defined tumor inhibition criterion (GI50, TGI, or LC50) is recalculated in log10 expression, and the colored bars, which indicate then the sensitivity of the individual tumor cell line to the agent, are given in log10 units. […] The most important feature is at the bottom of the page: the MID (Mean of Inhibition Data) indicates the mean concentration for all tested cell lines required for the drug to reach the defined tumor inhibition criterion (GI50, TGI, or LC50). It is given in Log10GI50, Log10TGI, and Log10LC50. From those values, the corresponding MID is calculated. […] The MID can be transformed from logarithmic into linear concentrations by the formula: c = 10^MID.
The human tumor cell lines of the cancer screening panel are grown in RPMI-1640 medium containing 5% fetal bovine serum (FBS) and 2 mM L-glutamine. For a typical screening experiment, cells are inoculated into 96-well microtiter plates in 100 μL at plating densities ranging from 5000 to 40,000 cells/well, depending on the doubling time of individual cell lines. After cell inoculation, the microtiter plates are incubated at 37 °C, 5% CO2, 95% air, and 100% relative humidity for 24 h prior to the addition of experimental drugs. After 24 h, two plates of each cell line are fixed in situ with trichloroacetic acid (TCA) to represent a measurement of the cell population for each cell line at the time of drug addition (Tz). Experimental drugs are solubilized in dimethyl sulfoxide (DMSO) at 400-fold the desired final maximum test concentration and stored frozen prior to use. At the time of drug addition, an aliquot of frozen concentrate is thawed and diluted to twice the desired final maximum test concentration with a complete medium containing 50 μg/mL gentamicin. Additional four, 10-fold or ½ log serial dilutions are made to provide a total of five drug concentrations plus control. Aliquots of 100 μL of these different drug dilutions are added to the appropriate microtiter wells already containing 100 μL of the medium, resulting in the required final drug concentrations.
Following drug addition, the plates are incubated for an additional 48 h at 37 °C, 5% CO2, 95% air, and 100% relative humidity. For adherent cells, the assay is terminated by the addition of cold TCA. Cells are fixed in situ by the gentle addition of 50 μL of cold 50% (m/v) TCA (final concentration, 10% TCA) and incubated for 60 min at 4 °C. The supernatant is discarded, and the plates are washed five times with tap water and air dried. Sulforhodamine B (SRB) solution [100 μL at 0.4% (m/v) in 1% acetic acid] is added to each well, and plates are incubated for 10 min at room temperature. After staining, unbound dye is removed by washing five times with 1% acetic acid, and the plates are air dried. Bound stain is subsequently solubilized with 10 mM trizma® base [2-amino-2-(hydroxymethyl)-1,3-propandiol, tris base, trometamol], and the absorbance is read on an automated plate reader at a wavelength of λ = 515 nm. For suspension cells, the methodology is the same, except that the assay is terminated by fixing settled cells at the bottom of the wells by gently adding 50 μL of 80% TCA (final concentration, 16% TCA). Using the seven absorbance measurements [time zero, (Tz), control growth, (C), and test growth in the presence of the drug at the five concentration levels (Ti)], the percentage growth is calculated at each of the drug concentration levels. Percentage growth inhibition is calculated as:[(Ti − Tz)/(C − Tz)] × 100 for concentrations for which Ti ≥ Tz [(Ti − Tz)/Tz] × 100 for concentrations for which Ti < Tz
Three dose-response parameters are calculated for each experimental agent.

Series [5] concerns EKVX. The settings on record: non-small-cell lung cancer, mutant p53, 48 h.
Series [6] deals with EKVX. Kind of series: cells. Particulars: Homo sapiens, 48 h, read-out: LC50.
The nature of series [7]: Storage stability of the solid substance (1H-NMR after storage). The settings on record: over six years at +0–4 °C in the refrigerator. The format is physicochemical. As to the method: The specimen of compound 3, which was synthesized on Saturday, 27 May 2017, was investigated using proton NMR (Figure 13) on Wednesday, 23 August 2023, after over six years of storage at +0–4 °C in the refrigerator. The specimen was newly dried over CaCl2 in vacuo for 19 h. […]

The text below walks through data of paper PMC10892984, “Novel Antineoplastic Inducers of Mitochondrial Apoptosis in Human Cancer Cells” (Molecules, 2024).

Each structure is given as a SMILES string. “And” between values parts separate entries of the source, which are not always exact repeats. Equal values may be shown once.

A word on the TGI: it is the concentration giving total growth inhibition. Broadly, the GI50 is the concentration at which growth is held to half of that of the control.

Turning to `c1cc(CNC23CC4CC(CC(C4)C2)C3)cc(C[N+](Cc2cccc(CNC34CC5CC(CC(C5)C3)C4)c2)(Cc2cccc(CNC34CC5CC(CC(C5)C3)C4)c2)Cc2cccc(CNC34CC5CC(CC(C5)C3)C4)c2)c1` (centres unmarked) [Compound 1, tetrakis{3-[(tricyclo[3.3.1.1^3,7]decan-1-ammonio)methyl]benzyl}ammonium pentachloride], the TGI with HOP-92 is reported as 3.06 µM; in the series with K-562 it was 36.2 µM; with SR, above 50 µM; in the series with U251 it was 2.69 µM; in the series on UACC-257, 10.8 µM; with SK-OV-3, 11.4 µM. Moreover, the 50% growth inhibitory concentration (GI50) with HOP-92 (Homo sapiens) was determined as 1.14 µM; in the series with K-562, 1.46 µM; with SR, 1.49 µM; in the series on U251, 1.12 µM; with UACC-257 it was 3.08 µM; in the series on SK-OV-3 it was 5.11 µM. The GI50 in series [4] was 1.29 µM. Also, the CC50 was 12.6 µM in the series on HOP-92 (Homo sapiens, read-out: LC50 (the source's name)); below 1 µM in series [1]; 1.8 µM in series [2]; above 50 µM with K-562; above 50 µM in the series on SR; 8.79 µM with U251. For the same molecule, the CC50 is 29.4 µM in the series with UACC-257, 25.5 µM with SK-OV-3 and 16.6 µM in series [4]. Moreover, the inhibition at 1 µM in the series with CCRF−CEM cells turned out to be 60%. Besides, the “cyclin D1 protein factor” value in [3] is given as “downregulated”. In addition, the “expression of cyclin-dependent kinase inhibitor p21^Waf1/p21^Cip1” value in series [3] is reported as “induced the expression”. Besides, the “pro-apoptotic factor Bax expression” value in series [3] is recorded as “increased”. Also, in [4], the “induction of cancer cell death (classification)” value (“induction of cancer cell death” below) is “tumoricidal”. Moreover, the “Mean of Inhibition Data (MID) TGI, 10^MID” value (“Mean of Inhibition Data” below) in [4] was determined as 4.677 µM.

Regarding `COc1cc2c(c(OC)c1OC)-c1ccc(NNC(N)=S)c(=O)cc1C(NC(C)=O)CC2` [Compound 2, N-[(aS,7S)-10-(2-carbamothioylhydrazinyl)-1,2,3-trimethoxy-9-oxo-5,6,7,9-tetrahydrobenzo[a]heptalen-7-yl]acetamide monohydrate × ⅔ (ethyl acetate)], the TGI in the series on EKVX [5], with K-562, in the series with SR, with U251, in the series on UACC-257 and with SK-OV-3 was above 100 µM throughout. The CC50 with EKVX [6], in the series with K-562, with SR, with U251, in the series with UACC-257 and with SK-OV-3 was above 100 µM throughout. The CC50 in series [4] was determined as 95.5 µM. Besides, the GI50 was 0.362 µM with K-562; 0.279 µM in the series on SR; 0.479 µM with U251; 0.646 µM with UACC-257; 1.39 µM in the series with SK-OV-3; 0.933 µM in series [4]. The “induction of cancer cell death” value in series [4] is “acts only cytostatic”. The “Mean of Inhibition Data” value in series [4] was found to be 32.359 µM.

As to `COc1cc2c(c(OC)c1OC)-c1ccc(NNC(=S)N(Cc3cccc(C[N+](Cc4cccc(CNC56CC7CC(CC(C7)C5)C6)c4)(Cc4cccc(CNC56CC7CC(CC(C7)C5)C6)c4)Cc4cccc(CN(C(=S)NNc5ccc6c(cc5=O)C(NC(C)=O)CCc5cc(OC)c(OC)c(OC)c5-6)C56CC7CC(CC(C7)C5)C6)c4)c3)C34CC5CC(CC(C5)C3)C4)c(=O)cc1C(NC(C)=O)CC2` [Compound 3, [(bis{3-[(tricyclo[3.3.1.1^3,7]decan-1-ylamino)methyl]benzyl}ammonio)bis(methanediylbenzene-3,1-diylmethanediyl)]di-2-[(aS,7S)-7-(acetylamino)-1,2,3-trimethoxy-9-oxo-5,6,7,9-tetrahydrobenzo[a]heptalen-10-yl]-N-(tricyclo[3.3.1.1^3,7]decan-1-yl)hydrazinecarbothioamide chloride pentahydrate], the TGI was 4.08 µM with HOP-92, 8.46 µM with EKVX [5], 10.3 µM in the series with UACC-257 and 7.51 µM with SK-OV-3. In addition, in series [7], the “stability on storage (1H-NMR)” value is “very pure even after six years storage”. The “induction of cancer cell death” value in series [4] was “tumoricidal”. In addition, the “Mean of Inhibition Data” value in [4] was 4.571 µM and 4.57 µM.
